In patent US20240092784A1, “CONDENSED HETEROCYCLIC COMPOUND” (NISSAN CHEMICAL CORPORATION, priority 2020, published 2024):
Where a name gives a salt, the structure may show the parent alone.

Target: human SPR (Homo sapiens (Human), UniProt P35270)
Test: Evaluation Example 2: Measurement of human SPR inhibitory activity (seven concentrations, sepiapterin absorbance at 420 nm)
Type: biochemical
Conditions: Evaluation Example 2, seven concentrations 0.14 nM to 100 nM, 240 minutes at room temperature, read-out: IC50
Summary of the method: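 His-tagged full-length human SPR (1-261) was expressed in E. coli and the tag removed. Enzyme at 150 ng/mL in 100 mM Tris-HCl pH 7.5/0.01% BSA was mixed with compound (0.14–100 nM, seven points), 120 μM sepiapterin and 160 μM NADPH, both as added-solution concentrations. After 240 min at room temperature, remaining sepiapterin was read at 420 nm to give percent inhibition.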

Chain of human SPR (P35270 whole entry): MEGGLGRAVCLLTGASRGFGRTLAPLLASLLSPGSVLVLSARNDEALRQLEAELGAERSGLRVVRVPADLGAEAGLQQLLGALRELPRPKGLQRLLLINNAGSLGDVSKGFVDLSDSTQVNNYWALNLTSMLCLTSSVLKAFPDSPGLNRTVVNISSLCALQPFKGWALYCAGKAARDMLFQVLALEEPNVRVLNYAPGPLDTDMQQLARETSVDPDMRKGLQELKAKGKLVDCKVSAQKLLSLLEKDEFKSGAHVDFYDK

Point of comparison: `COc1cnc(-c2cc3n(CC(C)(C)C)c(=O)c(C(=O)NC4CC4)c(O)n3n2)cn1` [Synthesis Example 300, N-Cyclopropyl-7-hydroxy-2-(5-methoxypyrazin-2-yl)-4-neopentyl-5-oxo-4,5-dihydropyrazolo[1,5-a]pyrimidine-6-carboxamide], IC50 9.44 nM. Against it:
- CC(C)(C)Cn1c(=O)c(C(=O)NC2CC2)c(O)n2nc(-c3ccccn3)cc12 [Synthesis Example 299, N-Cyclopropyl-7-hydroxy-4-neopentyl-5-oxo-2-(pyridin-2-yl)-4,5-dihydropyrazolo[1,5-a]pyrimidine-6-carboxamide] — within 1.5-fold, 6.43 nM
- CC(C)(C)Cn1c(=O)c(C(=O)NC2CC2)c(O)n2nc(-c3cn[nH]c3C#N)cc12 [Synthesis Example 301] — 7.7-fold lower, 1.22 nM
- CC(C)(C)Cn1c(=O)c(C(=O)NC2CC2)c(O)n2nc(-c3cnccn3)cc12 [Synthesis Example 302, N-Cyclopropyl-7-hydroxy-4-neopentyl-5-oxo-2-(pyrazin-2-yl)-4,5-dihydropyrazolo[1,5-a]pyrimidine-6-carboxamide] — 3.5-fold lower, 2.69 nM
- Cc1cnc(-c2cc3n(CC(C)(C)C)c(=O)c(C(=O)NC4CC4)c(O)n3n2)cn1 [Synthesis Example 303, N-Cyclopropyl-7-hydroxy-2-(5-methylpyrazin-2-yl)-4-neopentyl-5-oxo-4,5-dihydropyrazolo[1,5-a]pyrimidine-6-carboxamide] — 3.7-fold lower, 2.58 nM
- CC(C)(C)Cn1c(=O)c(C(=O)NC2CC2)c(O)n2nc(-c3cnc(F)cn3)cc12 [Synthesis Example 304, N-Cyclopropyl-2-(5-fluoropyrazin-2-yl)-7-hydroxy-4-neopentyl-5-oxo-4,5-dihydropyrazolo[1,5-a]pyrimidine-6-carboxamide] — 3.1-fold lower, 3 nM
- CC(C)(C)Cn1c(=O)c(C(=O)NC2CC2)c(O)n2nc(-c3[nH]ncc3Cl)cc12 [Synthesis Example 305, 2-(4-Chloro-1H-pyrazol-5-yl)-N-cyclopropyl-7-hydroxy-4-neopentyl-5-oxo-4,5-dihydropyrazolo[1,5-a]pyrimidine-6-carboxamide] — 4.2-fold lower, 2.24 nM
- CC(C)(C)Cn1c(=O)c(C(=O)NC2CC2)c(O)n2nc(-c3n[nH]c4ncccc34)cc12 [Synthesis Example 306] — within 1.5-fold, 9.43 nM
- CC(C)(C)Cn1c(=O)c(C(=O)NC2CC2)c(O)n2nc(-c3n[nH]c4ccncc34)cc12 [Synthesis Example 307, N-Cyclopropyl-7-hydroxy-4-neopentyl-5-oxo-2-(1H-pyrazolo[4,3-c]pyridin-3-yl 4,5-dihydropyrazolo[1,5-a]pyrimidine-6-carboxamide hydrochloride] — 3.1-fold lower, 3.03 nM
- CNc1ccncc1-c1cc2n(CC(C)(C)C)c(=O)c(C(=O)NC3CC3)c(O)n2n1 [Synthesis Example 308, N-Cyclopropyl-7-hydroxy-2-(4-(methylamino)pyridin-3-yl)-4-neopentyl-5-oxo-4,5-dihydropyrazolo[1,5-a]pyrimidine-6-carboxamide] — 2.6-fold lower, 3.6 nM
- CNc1ncccc1-c1cc2n(CC(C)(C)C)c(=O)c(C(=O)NC3CC3)c(O)n2n1 [Synthesis Example 309, N-Cyclopropyl-7-hydroxy-2-(2-(methylamino)pyridin-3-yl)-4-neopentyl-5-oxo-4,5-dihydropyrazolo[1,5-a]pyrimidine-6-carboxamide] — 2.4-fold higher, 22.9 nM
- Cn1cc(-c2cc3n(CC(C)(C)C)c(=O)c(C(=O)NC4CC4)c(O)n3n2)c(C(N)=O)n1 [Synthesis Example 310, 2-(3-Carbamoyl-1-methyl-1H-pyrazol-4-yl)-N-cyclopropyl-7-hydroxy-4-neopentyl-5-oxo-4,5-dihydropyrazolo[1,5-a]pyrimidine-6-carboxamide] — 3.8-fold lower, 2.47 nM
- CC(C)(C)Cn1c(=O)c(C(=O)NC2CC2)c(O)n2nc(-c3[nH]ncc3C(=O)N3CCOCC3)cc12 [Synthesis Example 311, N-Cyclopropyl-7-hydroxy-2-(4-(morpholine-4-carbonyl)-1H-pyrazol-5-yl)-4-neopentyl-5-oxo-4,5-dihydropyrazolo[1,5-a]pyrimidine-6-carboxamide] — 7.8-fold lower, 1.21 nM
- CC(C)(C)Cn1c(=O)c(C(=O)NC2CC2)c(O)n2nc(-c3c[nH]nc3C(N)=O)cc12 [Synthesis Example 312, 2-(3-Carbamoyl-1H-pyrazol-4-yl)-N-cyclopropyl-7-hydroxy-4-neopentyl-5-oxo-4,5-dihydropyrazolo[1,5-a]pyrimidine-6-carboxamide] — 7.3-fold lower, 1.3 nM
- CC(C)(C)Cn1c(=O)c(C(=O)NC2CC2)c(O)n2nc(-c3[nH]ncc3C(=O)N3CCC(F)(F)CC3)cc12 [Synthesis Example 313, N-Cyclopropyl-2-(4-(4,4-difluoropiperidine-1-carbonyl)-1H-pyrazol-5-yl)-7-hydroxy-4-neopentyl-5-oxo-4,5-dihydropyrazolo[1,5-a]pyrimidine-6-carboxamide hydrochloride] — 8.2-fold lower, 1.15 nM
- CN(C)C(=O)c1cn[nH]c1-c1cc2n(CC(C)(C)C)c(=O)c(C(=O)NC3CC3)c(O)n2n1 [Synthesis Example 314, N-Cyclopropyl-2-(4-(dimethylcarbamoyl)-1H-pyrazol-5-yl)-7-hydroxy-4-neopentyl-5-oxo-4,5-dihydropyrazolo[1,5-a]pyrimidine-6-carboxamide hydrochloride] — 10-fold lower, 0.93 nM
- CC(C)(C)Cn1c(=O)c(C(=O)NC2CC2)c(O)n2nc(-c3[nH]ncc3C(=O)NCC3CCOCC3)cc12 [Synthesis Example 315, N-Cyclopropyl-7-hydroxy-4-neopentyl-5-oxo-2-(4-(((tetrahydro-2H-pyran-4-yl)methyl)carbamoyl)-1H-pyrazol-5-yl)-4,5-dihydropyrazolo[1,5-a]pyrimidine-6-carboxamide hydrochloride] — 8.5-fold lower, 1.11 nM
- CC(C)(C)Cn1c(=O)c(C(=O)NC2CC2)c(O)n2nc(-c3[nH]ncc3C(=O)N3CCC(F)(F)C3)cc12 [Synthesis Example 316, N-Cyclopropyl-2-(4-(3,3-difluoropyrrolidine-1-carbonyl)-1H-pyrazol-5-yl)-7-hydroxy-4-neopentyl-5-oxo-4,5-dihydropyrazolo[1,5-a]pyrimidine-6-carboxamide hydrochloride] — 10-fold lower, 0.9 nM
- CC(C)(C)Cn1c(=O)c(C(=O)NC2CC2)c(O)n2nc(-c3c[nH]nc3N)cc12 [Synthesis Example 317, 2-(3-Amino-1H-pyrazol-4-yl)-N-cyclopropyl-7-hydroxy-4-neopentyl-5-oxo-4,5-dihydropyrazolo[1,5-a]pyrimidine-6-carboxamide] — 7-fold lower, 1.34 nM
- CC(C)Cn1c(=O)c(C(=O)NC2CC2)c(O)n2nc(O)cc12 [Synthesis Example 318, N-Cyclopropyl-2,7-dihydroxy-4-isobutyl-5-oxo-4,5-dihydropyrazolo[1,5-a]pyrimidine-6-carboxamide] — 6.6-fold lower, 1.43 nM
- Cc1cc2n(CC(C)C)c(=O)c(C(=O)NC3CC3)c(O)n2n1 [Synthesis Example 319, N-Cyclopropyl-7-hydroxy-4-isobutyl-2-methyl-5-oxo-4,5-dihydropyrazolo[1,5-a]pyrimidine-6-carboxamide] — 3-fold lower, 3.16 nM
- Cc1cc2n(CC(C)(C)C)c(=O)c(C(=O)NC3CC3)c(O)n2n1 [Synthesis Example 320, N-Cyclopropyl-7-hydroxy-2-methyl-4-neopentyl-5-oxo-4,5-dihydropyrazolo[1,5-a]pyrimidine-6-carboxamide] — 5.6-fold lower, 1.69 nM
- COC(C)(C)Cn1c(=O)c(C(=O)NC2CC2)c(O)n2nc(Nc3cnccn3)cc12 [Synthesis Example 321, N-Cyclopropyl-7-hydroxy-4-(2-methoxy-2-methylpropyl)-5-oxo-2-(pyrazin-2-ylamino)-4,5-dihydropyrazolo[1,5-a]pyrimidine-6-carboxamide] — 13-fold lower, 0.72 nM
- CC(C)(C)Cn1c(=O)c(C(=O)NC2CC2)c(O)n2nc(Nc3cnc(F)cn3)cc12 [Synthesis Example 322, N-Cyclopropyl-2-((5-fluoropyrazin-2-yl)amino)-7-hydroxy-4-neopentyl-5-oxo-4,5-dihydropyrazolo[1,5-a]pyrimidine-6-carboxamide] — 9.6-fold lower, 0.98 nM
- CC(C)(C)Cn1c(=O)c(C(=O)NC2CC2)c(O)n2nc(Nc3cnc(C#N)cn3)cc12 [Synthesis Example 323, 2-((5-Cyanopyrazin-2-yl)amino)-N-cyclopropyl-7-hydroxy-4-neopentyl-5-oxo-4,5-dihydropyrazolo[1,5-a]pyrimidine-6-carboxamide] — 7.9-fold lower, 1.2 nM
- CC(C)(C)Cn1c(=O)c(C(=O)NC2CC2)c(O)n2nc(Nc3cncc(C#N)n3)cc12 [Synthesis Example 324, 2-((6-Cyanopyrazin-2-yl)amino)-N-cyclopropyl-7-hydroxy-4-neopentyl-5-oxo-4,5-dihydropyrazolo[1,5-a]pyrimidine-6-carboxamide] — 5.9-fold lower, 1.61 nM
- CC(C)(C)Cn1c(=O)c(C(=O)NC2CC2)c(O)n2nc(Nc3ccnc(C#N)n3)cc12 [Synthesis Example 325, 2-((2-Cyanopyrimidin-4-yl)amino)-N-cyclopropyl-7-hydroxy-4-neopentyl-5-oxo-4,5-dihydropyrazolo[1,5-a]pyrimidine-6-carboxamide] — 6.5-fold lower, 1.45 nM
- C[C@H](Nc1cc2n(CC(C)(C)C)c(=O)c(C(=O)NC3CC3)c(O)n2n1)c1ccccn1 [Synthesis Example 326, (S)-N-Cyclopropyl-7-hydroxy-4-neopentyl-5-oxo-2-((1-(pyridin-2-yl)ethyl)amino)-4,5-dihydropyrazolo[1,5-a]pyrimidine-6-carboxamide] — 4.8-fold lower, 1.96 nM
- C[C@@H](Nc1cc2n(CC(C)(C)C)c(=O)c(C(=O)NC3CC3)c(O)n2n1)c1ccccn1 [Synthesis Example 327, (R)-N-Cyclopropyl-7-hydroxy-4-neopentyl-5-oxo-2-((1-(pyridin-2-yl)ethyl)amino)-4,5-dihydropyrazolo[1,5-a]pyrimidine-6-carboxamide] — 3.9-fold lower, 2.39 nM
- Cc1nccnc1Nc1cc2n(CC(C)(C)C)c(=O)c(C(=O)NC3CC3)c(O)n2n1 [Synthesis Example 328, N-Cyclopropyl-7-hydroxy-2-((3-methylpyrazin-2-yl)amino)-4-neopentyl-5-oxo-4,5-dihydropyrazolo[1,5-a]pyrimidine-6-carboxamide] — 6.1-fold lower, 1.56 nM
